This note sets out measurements from paper PMC7932521, “2-aminobenzimidazoles for leishmaniasis: From initial hit discovery to in vivo profiling” (PLoS Neglected Tropical Diseases, 2021).

A short description of data set [1]: Mouse liver microsomal stability. The data set is classed as in vitro ADME. The following applies: for microsomal CLint at 0.5 μM: CD1, mouse, liver microsomes. The procedure, abridged: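 Test compound at 0.5 μM incubated with 0.25 mg/mL human (200-donor pool) or CD1 mouse liver microsomes, pH 7.4, 37°C, started with […]; sampled 0–30 min. LC-MS/MS quantitation against internal standard; t1/2 and Clint (μL/min/mg) from non-linear regression of % remaining versus time.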
On the technique in general: Microsomes from liver hold many membrane-bound enzymes, among them those of drug oxidation.

Data set [2] deals with PMM (Primary Mouse Macrophages). The experiment in a line: Cytotoxicity on primary peritoneal mouse macrophages. Format: cell-based. The following applies: read-out: PMM IC50. In a few lines:
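Host cells were peritoneal macrophages from Swiss mice, harvested after 2 days of starch stimulation and kept in RPMI-1640 with 5% FCS at 37 °C, 5% CO2. Compounds were tested in 4-fold dilutions from 64 μM, with final DMSO below 1%.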

A short description of data set [3]: Parallel artificial membrane permeability assay (PAMPA). The data set is classed as in vitro ADME. The following applies: S1 Data; for Papp at 5 h, 10 μM: PAMPA, read-out: PAMPA Pe. The procedure, abridged: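 Compounds at 10μM final in PBS pH 6.5 (donor) against PBS pH 7.4 (acceptor) across lipid-coated membranes, incubated 5 h at 37°C. Donor, acceptor and T0 levels measured by LC-MS/MS to derive effective permeability (Pe); n = 3.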

Data set [4] relates to Leishmania infantum MHOM/MA(BE)/67/ITMAP263 amastigotes. The experiment in a line: L. infantum intracellular amastigote assay in PMM. Format: cell-based. The following applies: for SI: selectivity index (CC50 / IC50): CC50 / L. infantum IC50; for IC50: read-out: L. infantum IC50. The procedure, abridged:
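Mouse peritoneal macrophages infected with hamster spleen-derived amastigotes (2 h, 37°C), then exposed to 4-fold dilutions from 64 μM (DMSO <1%) for 5 days at 37°C, 5% CO2. Burden scored microscopically after Giemsa staining as percent reduction vs untreated wells; IC50 as geometric mean of ≥2 experiments.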

The next data set in a line: Kinetic solubility. Format: physicochemical. The following applies: for solubility kinetic at 24 h: PBS buffer pH 7.4, aqueous buffer, kinetic from dmso stock, PBS pH 7.4, read-out: KS PBS - pH7.4. The procedure: The precipitates on the incubation plate were removed by centrifugation (15 min, 3000 rpm, r.t.); the compound concentration in the resulting supernatant was determined by LC-MS/MS. Results were calculated as the concentration of remaining compound in solution after incubation.

The nature of another data set: MRC-5 cytotoxicity. The data set is classed as cell-based. As to conditions: human, MRC-5 cells; S1 Data.
Data set [5] is described as follows: Experimental distribution coefficient (eLogD). As to conditions: for chromatographic logD: reverse stationary phase HPLC column (Ascentis RP-Amide). Format: physicochemical. The procedure, abridged: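 Lipophilicity derived from retention time on an Ascentis RP-Amide reverse-phase column by LC-MS/MS, compounds at 1.0 μg/mL with internal standard; mobile phases 5% methanol in 10mM ammonium acetate pH 7.4 and 100% methanol. LogD calculated from a linear calibration of eight standards' retention times against known LogD.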

The next data set has as its system MRC-5 cells. The experiment in a line: MRC-5 cytotoxicity. The data set is classed as cell-based. The following applies: S1 Data.
The next data set is described as follows: HEPG2 cytotoxicity. The following applies: human, HepG2 cells; S1 Data. The data set is classed as cell-based. The text has this: Supplement pntd.0009196.s001.xlsx, sheet "Complete Dataset" | column: HEPG2 CC50 (uM)
Where [6] appears, read: Leishmania infantum, 120 h, intracellular amastigotes in PMM, 5 days.
[7] abbreviates: intracellular amastigotes in PMM, 5 days.
Where [8] appears, read: pH 7.4, S1 Data, read-out: MLM CLint.

In brackets after ≈: the same amount, converted by molar mass. Read-outs that look alike come from different tables or passages of the source. Where only a bound is given, the exact number is not on record here.

For orientation: IC50 means the concentration that gives 50% inhibition. As a reminder, the CC50 is the concentration giving 50% cytotoxicity. As for `Cn1nccc1C(=O)Nc1nc2cncnc2n1CC(F)(F)F` [Compound 55, O=C(c1ccnn1C)Nc2nc(cncn3)c3n2CC(F)(F)F], the “MLM CLint” value in data set [1] (S1 Data) was found to be 24 µL/min/mg. For the same compound, the IC50 in [2] (Mus musculus, Macrophage) is 8 µM; in [4] (setting [6]), 4 µM; in data set [4] (Leishmania infantum, S1 Data), 4.03 µM. For the same compound, the Papp at 5 h, 10 μM in data set [3] was determined as 13.6 ×10⁻⁶ cm/s. Besides, the “SI: selectivity index (CC50 / IC50)” value in data set [4] is reported as 2. The solubility kinetic at 24 h in “Kinetic solubility” came out at 65 µg/mL (≈ 200 µM). Further, the “KS PBS - pH 2” value in “Kinetic solubility” was 64.44 ug/mL. In addition, half-maximal cytotoxicity in “MRC-5 cytotoxicity” (CC50) was put at 24.8 µM.
As for “CCCn1c(NC(=O)Cc2ccc(F)cc2)nc(c13)cc(C(=O)OC)cc3 [Compound 9]”, in [1] (S1 Data), the “MLM CLint” value was 1253 µL/min/mg. Besides, the figures for the IC50 in [2] (S1 Data), in data set [4] (S1 Data) and in data set [4] (setting [7]) were 16 µM, 6.49 µM and 6.5 µM, respectively. Moreover, in data set [3], the “PAMPA Pe” value is 8.66 10-6 cm/s. Further, the “SI: selectivity index (CC50 / IC50)” value in [4] is 3. Moreover, in data set [5] (S1 Data), the eLogD was 4.04. For the same compound, the 50% cytotoxic concentration (CC50) with MRC-5 cells was found to be 18.7 µM.
Regarding “CCCn1c(NC(=O)Cc2ccc(F)cc2)nc(c13)cc(C(=O)N4CCOCC4)cc3 [Compound 14]”, the “MLM CLint” value in [1] (S1 Data) is less than 23 µL/min/mg; in data set [1] (mouse liver microsome intrinsic clearance) it was 23 µL/min/mg. Besides, the IC50 is more than 64 µM in data set [2] (S1 Data), 57 µM in data set [4] (S1 Data) and 57 µM in [4] (setting [7]). Also, the “PAMPA Pe” value in data set [3] was 7.26 10-6 cm/s. Besides, the “SI: selectivity index (CC50 / IC50)” value in data set [4] amounted to 1. The eLogD in data set [5] (S1 Data) is recorded as 3.05. The CC50 in the data set on MRC-5 cells was more than 64 µM.
Broadly, the chromatographic logD is a lipophilicity value derived from retention on a column. For the compound `N#Cc1ccc2nc(NC(=O)Cc3ccc(F)cc3F)n(CC(F)(F)F)c2c1` [Compound 24, Fc1cc(F)ccc1CC(Nc2nc(ccc(C#N)c3)c3n2CC(F)(F)F)=O], the microsomal CLint at 0.5 μM in [1] (setting [8]) came out at 20 µL/min/mg; in data set [1] (pH 7.4, mouse liver microsome intrinsic clearance, read-out: MLM Clint), 19.6 µL/min/mg. Further, the IC50 in data set [2] (Mus musculus, Macrophage) is 16 µM; in [4] (setting [6]) it was 10 µM; in data set [4] (Leishmania infantum, S1 Data), 10.2 µM. The CC50 in the data set “HEPG2 cytotoxicity” and in “MRC-5 cytotoxicity” was more than 64 µM in each case. Besides, the Papp at 5 h, 10 μM in data set [3] stood at 0.76 ×10⁻⁶ cm/s. In [5] (pH 7.4, S1 Data), this compound had a chromatographic logD of 3.85.
“CCCn1c(NC(=O)Cc2ccc(F)cc2)nc(c13)cc(C(=O)NC4CC4)cc3 [Compound 12]”: the “MLM CLint” value in [1] (S1 Data) is 52 µL/min/mg. Moreover, the IC50 is more than 64 µM in data set [2] (S1 Data), 45.2 µM in data set [4] (S1 Data) and 45 µM in data set [4] (setting [7]). Also, the “PAMPA Pe” value in [3] is reported as 13.10 10-6 cm/s. Besides, in data set [4], the “SI: selectivity index (CC50 / IC50)” value amounted to 1. Moreover, the eLogD in [5] (S1 Data) is listed as 3.50; in data set [5] (experimental, pH 7.4) it was 3.5. In the data set with MRC-5 cells, this compound returned a CC50 of more than 64 µM.
On to `COCCn1c(NC(=O)c2ccnn2C)nc2ccc(C#N)cc21` [Compound 50, O=C(c1ccnn1C)Nc2nc(ccc(C#N)c3)c3n2CCOC], for which the “MLM CLint” value in data set [1] (S1 Data) was 98 µL/min/mg. The IC50 in [2] (Mus musculus, Macrophage) was more than 64 µM; in [4] (setting [6]) it was 47 µM; in data set [4] (Leishmania infantum, S1 Data) it was 47 µM. In data set [3], the Papp at 5 h, 10 μM was determined as 14.7 ×10⁻⁶ cm/s. Besides, the “SI: selectivity index (CC50 / IC50)” value in data set [4] turned out to be 1. Moreover, the solubility kinetic at 24 h in the data set “Kinetic solubility” stood at 5.98 µg/mL (≈ 18.4 µM). In addition, the “KS PBS - pH 2” value in “Kinetic solubility” was 7.77 ug/mL. Besides, the CC50 in “MRC-5 cytotoxicity” was more than 64 µM.
On to “O=C(c1cc(nc(NC(=O)Cc2ccc(F)cc2)n3CCC)c3cc1)N4CCCC4 [Compound 13]”, for which the “MLM CLint” value in [1] (S1 Data) turned out to be 138 µL/min/mg. The IC50 was more than 64 µM in [2] (S1 Data), 9.79 µM in [4] (S1 Data) and 9.8 µM in data set [4] (setting [7]). Besides, the “PAMPA Pe” value in [3] is on record as 7.92 10-6 cm/s. Besides, the “SI: selectivity index (CC50 / IC50)” value in [4] is recorded as 6. Also, the eLogD in data set [5] (S1 Data) turned out to be 3.99; in [5] (experimental, pH 7.4) it was 4.0. Moreover, the CC50 in the data set with MRC-5 cells is more than 64 µM.
As for “CCCn1c(NC(=O)Cc2ccc(F)cc2)nc(c13)cc(C(=O)N(C)OC)cc3 [Compound 15]”, in data set [1] (S1 Data), the “MLM CLint” value was 128 µL/min/mg. Also, the results for the 50% inhibitory concentration (IC50) in [2] (S1 Data), in [4] (S1 Data) and in data set [4] (setting [7]) were more than 64 µM, 12.7 µM and 13 µM, respectively. The “PAMPA Pe” value in [3] was 9.07 10-6 cm/s. Also, the “SI: selectivity index (CC50 / IC50)” value in [4] turned out to be 5. For the same compound, the eLogD amounted to 3.31 in data set [5] (S1 Data) and 3.3 in data set [5] (experimental, pH 7.4). This compound displayed a CC50 in the data set on MRC-5 cells of 55.5 µM.
Consider “O=C(Nc1n(C2CC2)c(c3n1)ccc(F)c3)Cc4ccc(Cl)cc4 [Compound 22]”, for which the “MLM CLint” value in data set [1] (S1 Data) was determined as 380 µL/min/mg. Moreover, the 50% inhibitory concentration (IC50) in data set [2] (S1 Data) was found to be 25.4 µM; in data set [4] (S1 Data) it was 2.54 µM. Moreover, in data set [3], the “PAMPA Pe” value is reported as 17.70 10-6 cm/s. In addition, the eLogD in [5] (S1 Data) is 3.98. Half-maximal cytotoxicity in the data set on MRC-5 cells (CC50) was put at 21.9 µM.
Regarding “CCCn1c(NC(=O)Cc2ccc(F)cc2)nc(c13)cc(C(=O)O)cc3 [Compound 10]”, the half-maximal inhibitory concentration (IC50) in [2] (S1 Data) and in data set [4] (S1 Data) was more than 64 µM throughout. Also, the “PAMPA Pe” value in data set [3] was 6.27 10-6 cm/s. Besides, in [4], the “SI: selectivity index (CC50 / IC50)” value worked out at 1. In addition, the “L. infantum IC50” value in [4] (setting [7]) is “inactive”. In addition, the eLogD in data set [5] (S1 Data) is reported as 1.83. The 50% cytotoxic concentration (CC50) in the data set on MRC-5 cells is more than 64 µM.
Turning to “CCCn1c(NC(=O)Cc2ccc(F)cc2)nc(c13)cc(C(=O)NC)cc3 [Compound 11]”, the “MLM CLint” value in data set [1] (S1 Data) stood at 66 µL/min/mg. Further, the 50% inhibitory concentration (IC50) in [2] (S1 Data) and in data set [4] (S1 Data) was more than 64 µM throughout. The “PAMPA Pe” value in data set [3] is listed as 9.18 10-6 cm/s. In [4], the “SI: selectivity index (CC50 / IC50)” value was found to be 1. Moreover, the eLogD in [5] (S1 Data) amounted to 3.18. Further, the CC50 in the data set with MRC-5 cells is 34.8 µM.
Turning to `CC(C)(C)Cn1c(NC(=O)c2ccn[nH]2)nc2ccc(C#N)cc21` [Compound 34, O=C(Nc1nc(ccc(C#N)c2)c2n1CC(C)(C)C)c3ccn[nH]3], in [1] (setting [8]), the microsomal CLint at 0.5 μM came to 47 µL/min/mg. In addition, the concentration for half-maximal inhibition (IC50) in data set [2] (Mus musculus, Macrophage) is 50.8 µM; in [4] (setting [6]), 38 µM; in [4] (Leishmania infantum, S1 Data), 38.3 µM. Moreover, the CC50 is 16 µM in the data set “HEPG2 cytotoxicity” and more than 64 µM in “MRC-5 cytotoxicity”. In addition, in data set [3], the Papp at 5 h, 10 μM was 11.1 ×10⁻⁶ cm/s. The “SI: selectivity index (CC50 / IC50)” value in data set [4] amounted to 1. Further, the eLogD in data set [5] (experimental, pH 7.4) turned out to be 3.6. In [5] (pH 7.4, S1 Data), this compound came in with a chromatographic logD of 3.67.
